Experimental data taken from patent US20150284331A1 (priority 2012, published 2015).

Experiments:
[1] = biological target: T1, acetylcholinesterase (Rattus norvegicus, UniProt P37136); test: biochemical; format: biochemical; details: rat cortex enzyme; final concentration 4×10−5 mol/L
T1 construct: Acetylcholinesterase: rat cortex; from tissue; host or cells: rat cortex
T1 sequence (P37136 32-614): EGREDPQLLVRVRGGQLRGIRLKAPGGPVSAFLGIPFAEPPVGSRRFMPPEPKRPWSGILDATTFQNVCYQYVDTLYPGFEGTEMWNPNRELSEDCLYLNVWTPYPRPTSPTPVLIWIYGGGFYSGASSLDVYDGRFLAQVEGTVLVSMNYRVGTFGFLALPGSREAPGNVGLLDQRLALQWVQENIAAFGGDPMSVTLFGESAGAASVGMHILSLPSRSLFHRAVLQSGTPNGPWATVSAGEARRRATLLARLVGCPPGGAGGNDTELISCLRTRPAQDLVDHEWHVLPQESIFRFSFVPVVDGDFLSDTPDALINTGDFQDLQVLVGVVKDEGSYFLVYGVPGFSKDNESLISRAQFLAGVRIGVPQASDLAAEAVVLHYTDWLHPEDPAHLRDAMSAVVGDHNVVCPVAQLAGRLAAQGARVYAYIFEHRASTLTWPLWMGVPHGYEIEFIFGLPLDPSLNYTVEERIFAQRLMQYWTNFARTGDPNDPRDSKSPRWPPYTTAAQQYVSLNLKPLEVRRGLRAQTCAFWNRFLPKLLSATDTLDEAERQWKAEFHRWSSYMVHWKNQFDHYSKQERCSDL
Protocol: (§1) Sample processing: All samples were formulated as 10-2 mol/L solution by using 100% DMSO. 10-2 mol/L solution was used in microdetermination. 1 μL was taken to use in single tube experiment.
(§2) Solvent control: 0.4% DMSO was used in microdetermination. The inhibition ratio of the sample was obtained wherein the effect of solvent was deducted.
Acetylcholinesterase: rat cortex

[2] = biological target: T2, butyrylcholinesterase (Rattus norvegicus, UniProt Q9JKC1); test: inhibition of butyrylcholinesterase (rat serum); format: biochemical; details: rat serum enzyme; final concentration 4×10−5 mol/L
T2 construct: Butyrylcholinesterase: rat serum; from tissue; host or cells: rat serum
T2 sequence (Q9JKC1 24-597): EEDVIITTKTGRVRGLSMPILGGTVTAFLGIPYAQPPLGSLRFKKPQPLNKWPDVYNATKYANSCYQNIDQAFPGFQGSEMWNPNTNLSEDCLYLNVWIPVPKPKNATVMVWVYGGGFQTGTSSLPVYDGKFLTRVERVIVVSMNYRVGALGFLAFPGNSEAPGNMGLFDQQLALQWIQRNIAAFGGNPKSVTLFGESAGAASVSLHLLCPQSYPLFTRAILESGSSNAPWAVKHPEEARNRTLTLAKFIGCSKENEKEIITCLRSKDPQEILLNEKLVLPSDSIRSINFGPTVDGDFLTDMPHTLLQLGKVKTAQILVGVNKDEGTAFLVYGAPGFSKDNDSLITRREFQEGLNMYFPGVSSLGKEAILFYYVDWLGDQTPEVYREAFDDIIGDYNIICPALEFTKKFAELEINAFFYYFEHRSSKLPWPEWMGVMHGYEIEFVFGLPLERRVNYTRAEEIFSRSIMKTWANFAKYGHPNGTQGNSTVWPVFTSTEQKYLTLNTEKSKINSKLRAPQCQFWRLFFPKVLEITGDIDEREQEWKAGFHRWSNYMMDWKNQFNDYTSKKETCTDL
Protocol: as §1, §2
Butyrylcholinesterase: rat serum

| SMILES | acetylcholinesterase inhibitory activity inhibition ratio (%) [1] | butyrylcholinesterase inhibitory activity inhibition ratio (%) [2] |
| --- | --- | --- |
| COc1cc2c(cc1OC)C(=O)C(CC1(F)CCN(C(=O)c3ccccc3)CC1)C2 (stereo not shown) [DC23, 2-((1-benzoyl-4-fluoropiperidin-4-yl)methyl)-5,6-dimethoxy-2,3-dihydro-1H-inden-1-one] | 57.09% | 0.00% |
| COc1cc2c(cc1OC)C(=O)C(CC1(F)CCN(Cc3cc(F)cc(F)c3)CC1)C2 (stereo not shown) [DC27, 2-((1-(3,5-difluorobenzyl)-4-fluoropiperidin-4-yl)methyl)-5,6-dimethoxy-2,3-dihydro-1H-inden-1-one] | 97.34% | 18.07% |
| COc1cc2c(cc1OC)C(=O)C(CC1(F)CCN(Cc3cccc(C)c3)CC1)C2 (stereo not shown) [DC29, 2-((4-fluoro-1-(3-methylbenzyl)piperidin-4-yl)methyl)-5,6-dimethoxy-2,3-dihydro-1H-inden-1-one] | 97.78% | 64.92% |
| COc1cc2c(cc1OC)C(=O)C(CC1(F)CCN(Cc3cccc(C(F)(F)F)c3)CC1)C2 (stereo not shown) [DC30, 2-((4-fluoro-1-(3-(trifluoromethyl)benzyl)piperidin-4-yl)methyl)-5,6-dimethoxy-2,3-dihydro-1H-inden-1-one] | 97.49% | 5.18% |
| COc1cc2c(cc1OC)C(=O)C(CC1(F)CCN(CC3CCC3)CC1)C2 (stereo not shown) [DC31, 2-((1-(cyclobutylmethyl)-4-fluoropiperidin-4-yl)methyl)-5,6-dimethoxy-2,3-dihydro-1H-inden-1-one] | 85.82% | 35.06% |
| COc1cc2c(cc1OC)C(=O)C(CC1(F)CCN(CC3CCCC3)CC1)C2 (stereo not shown) [DC32, 2-((1-(cyclopentylmethyl)-4-fluoropiperidin-4-yl)methyl)-5,6-dimethoxy-2,3-dihydro-1H-inden-1-one] | 90.10% | 46.68% |
| COc1cc2c(cc1OC)C(=O)C(CC1(F)CCN(CC3CCCCC3)CC1)C2 (stereo not shown) [DC33, 2-((1-(cyclohexylmethyl)-4-fluoropiperidin-4-yl)methyl)-5,6-dimethoxy-2,3-dihydro-1H-inden-1-one] | 90.10% | 0.36% |
| COc1cc2c(cc1OC)C(=O)C(CC1(F)CCN(CC3CCCCCC3)CC1)C2 (stereo not shown) [DC34, 2-((1-(cycloheptylmethyl)-4-fluoropiperidin-4-yl)methyl)-5,6-dimethoxy-2,3-dihydro-1H-inden-1-one] | 95.57% | 68.48% |
| COc1cc2c(cc1OC)C(=O)C(CC1(F)CCN(Cc3cc(F)cc(F)c3F)CC1)C2 (stereo not shown) [DC35, 2-((4-fluoro-1-(2,3,5-trifluorobenzyl)piperidin-4-yl)methyl)-5,6-dimethoxy-2,3-dihydro-1H-inden-1-one] | 94.39% | 10.08% |
| COc1cc2c(cc1OC)C(=O)C(CC1(F)CCN(Cc3ccc(-c4ccccc4)cc3)CC1)C2 (stereo not shown) [DC36, 2-((1-([1,1′-biphenyl]-4-ylmethyl)-4-fluoropiperidin-4-yl)methyl)-5,6-dimethoxy-2,3-dihydro-1H-inden-1-one] | 90.25% | 5.18% |
| COc1cc2c(cc1OC)C(=O)C(CC1(F)CCN(Cc3ccccc3C#N)CC1)C2.Cl (stereo not shown) [DC37, 2-((4-((5,6-dimethoxy-1-oxo-2,3-dihydro-1H-inden-2-yl)methyl)-4-fluoropiperidin-1-yl)methyl)benzonitrile hydrochloride] | 81.98% | 20.80% |
| COc1cc2c(cc1OC)C(=O)C(CC1(F)CCN(Cc3cccc(F)c3)CC1)C2.Cl (stereo not shown) [DC38, 2-((4-fluoro-1-(3-fluorobenzyl)piperidin-4-yl)methyl)-5,6-dimethoxy-2,3-dihydro-1H-inden-1-one hydrochloride] | 96.90% | 72.57% |
| COc1cc2c(cc1OC)C(=O)C(CC1(F)CC3CCC(C1)N3Cc1cc(C)cc(C)c1)C2 (stereo not shown) [DC44, 2-((8-(3,5-dimethylbenzyl)-3-fluoro-8-azabicyclo[3.2.1]octan-3-yl)methyl)-5,6-dimethoxy-2,3-dihydro-1H-inden-1-one] | 95.27% | 34.15% |
| COc1cc2c(cc1OC)C(=O)C(CC1(F)CC3CCC(C1)N3Cc1ccc(F)cc1)C2 (stereo not shown) [DC45, 2-((3-fluoro-8-(4-fluorobenzyl)-8-azabicyclo[3.2.1]octan-3-yl)methyl)-5,6-dimethoxy-2,3-dihydro-1H-inden-1-one] | 97.19% | 82.56% |
| COc1cc2c(cc1OC)C(=O)C(CC1(F)CC3CCC(C1)N3Cc1ccc(C(C)(C)C)cc1)C2 (stereo not shown) [DC47, 2-((8-(4-(tert-butyl)benzyl)-3-fluoro-8-azabicyclo[3.2.1]octan-3-yl)methyl)-5,6-dimethoxy-2,3-dihydro-1H-inden-1-one] | 75.33% | 7.63% |
| COC(=O)c1ccc(CN2C3CCC2CC(F)(CC2Cc4cc(OC)c(OC)cc4C2=O)C3)cc1 (stereo not shown) [DC50, methyl 4-((3-((5,6-dimethoxy-1-oxo-2,3-dihydro-1H-inden-2-yl)methyl)-3-fluoro-8-azabicyclo[3.2.1]octan-8-yl)methyl)benzoate] | 83.75% | 0.00% |
| COc1cc2c(cc1OC)C(=O)C(CC1(F)CC3CCC(C1)N3Cc1cccc(Br)c1)C2 (stereo not shown) [DC51, 2-((8-(3-bromobenzyl)-3-fluoro-8-azabicyclo[3.2.1]octan-3-yl)methyl)-5,6-dimethoxy-2,3-dihydro-1H-inden-1-one] | 85.08% | 15.26% |
| COc1cc2c(cc1OC)C(=O)C(CC1(F)CC3CCC(C1)N3Cc1ccccc1[N+](=O)[O-])C2 (stereo not shown) [DC52, 2-((3-fluoro-8-(2-nitrobenzyl)-8-azabicyclo[3.2.1]octan-3-yl)methyl)-5,6-dimethoxy-2,3-dihydro-1H-inden-1-one] | 93.80% | 0.73% |
| COc1cc2c(cc1OC)C(=O)C(CC1(F)CC3CCC(C1)N3Cc1cc(F)c(F)cc1F)C2 (stereo not shown) [DC57, 2-((3-fluoro-8-(2,4,5-trifluorobenzyl)-8-azabicyclo[3.2.1]octan-3-yl)methyl)-5,6-dimethoxy-2,3-dihydro-1H-inden-1-one] | 96.75% | 1017% |
| COc1cc2c(cc1OC)C(=O)C(CC1(F)CC3CCC(C1)N3Cc1ccccc1)C2 (stereo not shown) [DC59, 2-((8-benzyl-3-fluoro-8-azabicyclo[3.2.1]octan-3-yl)methyl)-5,6-dimethoxy-2,3-dihydro-1H-inden-1-one] | 86.12% | 69.03% |
